The nature of data set [1]: cytotoxicity in MT-4 cells (MTT, culture medium in place of HIV). The class given is cell-based. As to conditions: human. The protocol: The anti-HIV activity of each of the compounds produced in Examples was assayed by the following procedures. (1) Human T cell line MOLT-4 clone 8 persistently infected by HIV (HTLV-IIIB strain) was cultured in an RPMI-1640 medium supplemented with 10% fetal calf serum, the culture supernatant was filtered, and the titer of virus was determined; the culture supernatant was stored at -80° C. On the other hand, the test compound was diluted with the above culture medium to predetermined concentrations and distributed in 50 μl aliquots into a 96-well microtiter plate. Then, d suspension of MT-4 cells was added in 100 μl aliquots (3.5×10^4 cells per well) and then the above HIV-containing supernatant diluted with the above culture medium was added, 50 μl (60 pfu (plaque forming units)) per well. (2) The plate was incubated in a CO2 incubator at 37° C. for 5 days. Then, 30 μl/well of 3-(4,5-dimethyl thiazol-2-yl)-2,5-diphenyltetrazolium bromide (MTT) (5 mg/ml PBS) was added and the incubation was further continued for 1 hour. The surviving cells reducing MTT yield precipitation of formazan. Therefore, 150 μl portions of the culture supernatant were removed from all wells and, instead, 150 μl of a solution (10% Triton X-100 and 0.4% (v/v) HCl-added isopropyl alcohol) was added. The plate was shaken on a plate mixer to dissolve the formazan. The OD of formazan was measured with a microreader at 560 nm arid 690 nm (reference wavelength) and the result was compared with that of control.
The cytotoxicity of each of the compounds produced in Examples was assayed. In place of the HIV-containing supernatant (the virus suspension) in (1) in Test Example 1, 50 μl of the culture medium was added to each well, and the cytotoxicity was determined in the same manner as that for (2) in Test Example 1.

Data set [2] concerns the target T1, purified recombinant HIV-1 reverse transcriptase (Human immunodeficiency virus type 1 group M subtype B, UniProt P04585).
T1 construct: purified recombinant HIV-1 reverse transcriptase; made in house; host or cells: Escherichia coli
The data set can be described thus: reverse transcriptase inhibition, poly(rA)/(dT) template primer, [3H]dTTP uptake. The class given is biochemical. The protocol: The reverse transcriptase activity of each of the compounds synthesized in Examples was assayed by the following procedures.
Using the purified recombinant HIV-1 reverse transcriptase RT, E.C. 2.7.7.49) obtained by expression in Escherichia Coli, a 96-well plate assay system was established for assaying a large number of samples. The RT inhibitory activity was determined as follows. To 11 μl of a solution of the test inhibitor in water or MSO was added 100 μl of a reaction mixture (0.1 unit/100 μl RT, 50 mM Tris-HCl pH 8.3, 150 mM KCl, 10 mM MgCl2, 3 mM dithiothreitol, 0.1% Nonidet P-40, 10 μg/ml. poly(rA) and 10 μg/ml (dT)12-1.8 as template and primer, and 4 μM dTTP, 1 μCi/100 μl [^3 H]dTTP as substrate) and the mixture was incubated at 37° C. for 1 hour and, then, immediately cooled on ice. Using a cell harvester, the reaction mixture was transferred to a DEAE-filter mat (LKB-Pharmacia). Then, using the wash line of the cell harvester, the cells were washed twice with 5% Na2 HPO4 /H2 O and once with water and dried at 95° C. for 15 minutes. […] The inhibitory activity was expressed in percent inhibition relative to the uptake on water or DMSO control.

Where [3] appears, read: MT-4 cells, no virus, 37° C., 5 days, MTT, Table 3, read-out: CC50.

≈ marks a conversion by molar mass, not a printed value. Where a name gives a salt, the structure may show the parent alone. Read-outs that look alike come from different tables or passages of the source.

Regarding `CCCCCCCCCCCCn1c(CO)nc(C(C)C)c1Sc1cc(Cl)cc(Cl)c1` [Compound I-18, [5-(3,5-dichlorophenylthio)-1-dodecyl-4-isopropyl-1H-imidazol-2-yl]methanol], the CC50 at 120 h in data set [1] (setting [3]) was in the range of 10 to 100 µg/mL (≈ 20.6 to 206 µM). For the same molecule, the concentration for half-maximal inhibition (IC50) in data set [2] was more than 206 µM.
As to `CC(C)c1nc(COC(N)=O)n(Cc2ccccc2)c1Sc1cccc(Cl)c1` [Compound I-46, 1-benzyl-2-carbamoyloxymethyl-5-(3-chlorophenylthio)-4-isopropyl-1H-imidazole], the 50% cytotoxic concentration (CC50) at 120 h in data set [1] (setting [3]) is 12.5 to 25 µg/mL (≈ 30.1 to 60.1 µM). In data set [2], the IC50 was 1.92 µM.
For the molecule `CC(=O)OCCOCc1nc(Sc2cc(Cl)cc(Cl)c2)c(C(C)C)n1C` [Compound I-64, 2-[4-(3,5-dichlorophenylthio)-5-isopropyl-1-methyl-1H-imidazol-2-yl]methoxy} ethyl acetate], in data set [1] (setting [3]), the cytotoxic concentration (CC50) at 120 h was in the range of 12.5 to 25 µg/mL. For the same molecule, the IC50 in data set [2] was more than 240 µM.
Take `CC(C)c1c(Sc2cc(Cl)cc(Cl)c2)nc(COCCOC(N)=O)n1C` [Compound I-65]: the 50% cytotoxic concentration (CC50) at 120 h in data set [1] (setting [3]) lay within 12.5 to 25 µg/mL (≈ 29.9 to 59.8 µM). In data set [2], the concentration for half-maximal inhibition (IC50) is more than 239 µM.
Take `CC(C)c1nc(CN)n(CF)c1Sc1cc(Cl)cc(Cl)c1` [Compound I-77, 2-aminomethyl-5-(3,5-dichlorophenylthio)-1-fluoromethyl-4-isopropylimidazole]: the cytotoxic concentration (CC50) at 120 h in data set [1] (setting [3]) was 10 µg/mL (≈ 28.7 µM). In data set [2], the half-maximal inhibitory concentration (IC50) is 3.73 µM.
On to `CC(=O)NCc1nc(C(C)C)c(Sc2cc(Cl)cc(Cl)c2)n1C` [Compound I-83], for which the half-maximal cytotoxic concentration (CC50) at 120 h in data set [1] (setting [3]) fell in the range of 6.3 to 12.5 µg/mL (≈ 16.9 to 33.6 µM). Moreover, the half-maximal inhibitory concentration (IC50) in data set [2] is 218 µM.
For the molecule `Cc1ccc(S(=O)(=O)NCc2nc(C(C)C)c(Sc3cc(Cl)cc(Cl)c3)n2C)cc1` [Compound I-88, 5-(3,5-dichlorophenylthio)-4-isopropyl-1-methyl-2-p-toluenesulfonylaminomethyl-1H-imidazole], the CC50 at 120 h in data set [1] (setting [3]) was in the range of 1 to 10 µg/mL (≈ 2.06 to 20.6 µM). For the same molecule, the IC50 in data set [2] was more than 206 µM.
Taken in the same sequence, the figures for `Cc1cc(C)cc(S(=O)(=O)c2c(C(C)C)nc(CO)n2C)c1` [Compound I-107, [5-(3,5-dimethylphenylsulfonyl)-4-isopropyl-1-methyl-1H-imidazol-2-yl]methanol] were more than 100 µg/mL and 194 µM.
For `CC(C)c1nc(CN)n(C)c1S(=O)(=O)c1cc(Cl)cc(Cl)c1` [Compound I-111, 2-aminomethyl-5-(3,5-dichlorophenylsulfonyl)-4-isopropyl-1-methyl-1H-imidazole], the 50% cytotoxic concentration (CC50) at 120 h in data set [1] (setting [3]) was 1 to 10 µg/mL (≈ 2.76 to 27.6 µM).
Still for that read-out and setting: the result for `CC(C)c1nc(COC(N)=O)n(C)c1[S+]([O-])c1cc(Cl)cc(Cl)c1` (stereo not shown) [Compound I-115, 2-carbamoyloxymethyl-5-(3,5-dichlorophenylsulfinyl)-4-isopropyl-1-methyl-1H-imidazole] reads 10 to 100 µg/mL (≈ 25.6 to 256 µM).
Turning to `CC(C)c1nc(CO)n(Cc2ccc(C(C)(C)C)cc2)c1Sc1cc(Cl)cc(Cl)c1` [Compound I-116, 1-(p-t-butylbenzyl)-5-(3,5-dichlorophenylthio)-2-hydroxymethyl-4-isopropyl-1H-imidazole hydrochloride], the CC50 at 120 h in data set [1] (mt-4 cells) came to 25 µg/mL. In data set [2], the half-maximal inhibitory concentration (IC50) was more than 200 µM.
Taken in the same sequence, the figures for `CC(=O)Nc1ccc(Cn2c(CO)nc(C(C)C)c2Sc2cc(Cl)cc(Cl)c2)cc1` [Compound I-117, 1-(p-N-acetylaminobenzyl)-5-(3,5-dichlorophenylthio)-2-hydroxymethyl-4-isopropyl-1H-imidazole] were 50 µg/mL (≈ 108 µM) and 8.18 µM.
The like results for `CC(C)c1nc(CO)n(Cc2cccc(N)c2)c1Sc1cc(Cl)cc(Cl)c1` [Compound I-118, 1-(m-aminobenzyl)-5-(3,5-dichlorophenylthio)-2-hydroxymethyl-4-isopropyl-1H-imidazole] were, in that order, 12.5 to 25 µg/mL (≈ 29.6 to 59.2 µM) and 2.13 µM.
For “[5-(3,5-dichlorophenylthio)-1-(1-fluoroethyl)-4-isopropyl-1H-imidazol-2-yl]methanol [Compound I-35]”, the “RT IC50” value in data set [2] (pH 8.3, 37° C., 1 hour, Tables 5 and 6) is 0.69 µg/mL.
